The values that follow come from patent US10385072B2, “Gold(III) complexes as anticancer agents and a method of treating cancer” (King Fahd University of Petroleum and Minerals, priority 2017, dated 2019).

Holding throughout (format): cell-based, human
The subject of one assay is A2780 cells. Nature of the assay: Cell proliferation assay (MTT/MTS), A2780. Conditions: 72-120 h, MTT or MTS, mean±SEM. An excerpt: (§1) Hodgkin's lymphoma cell line (L-540) and human androgen-resistant prostate cancer cell line (PC3) were obtained from the German Collection of Microorganisms and Cell Cultures (Braunschweig, Germany). Human breast adenocarcinoma cell line MCF-7 cell line (HTB-22™) was obtained from the American Type Culture Collection (ATCC, Rockville, Md., USA). Human ovarian epithelial carcinoma-derived cancer cells A2780 and its cisplatin-resistant clone A2780cis were from Sigma Inc (St. Louis, Mo., USA), and the isogenic cisplatin-resistant 2780CP-16 cells were cultured as previously described (Siddik, Z. H.; Mims, B.; Lozano, G.; Thai, G. Independent pathways of p53 induction by cisplatin and X-rays in a cisplatin-resistant ovarian tumor cell line. Cancer Res. 1998, 58, 698-703, incorporated herein by reference in its entirety). A panel of non-small cell lung cancer (NSCLC) cell lines (H460, A549, H226, H838, H157, H1975, H2122, SKLU1 and H1299) was obtained from Dr. Garth Powis at MD Anderson Cancer Center. […]
(§2) PC3 and MCF-7 cells (2.5×10^3), A2780, A2780cis (4.0×10^3), A2780CP-16 and lung cancer cells (H460, A549, H226, H838, H157, H1975, H2122, SKLU1 and H1299) were seeded in 96-well flat-bottomed microplates (100 μL) and incubated for 24 h (to allow cell adhesion) before drug testing. […] After treatment, cell proliferation was evaluated by the MTS assay (Promega). […]

Assay [1] concerns cisplatin-resistant A2780cis cells. Nature of the assay: Cell proliferation assay (MTT/MTS), A2780cis. Conditions: for IC50: cisplatin-resistant A2780cis cells, 72-120 h, MTT or MTS, mean±SEM.
Source text: Hodgkin's lymphoma cell line (L-540) and human androgen-resistant prostate cancer cell line (PC3) were obtained from the German Collection of Microorganisms and Cell Cultures (Braunschweig, Germany). Human breast adenocarcinoma cell line MCF-7 cell line (HTB-22™) was obtained from the American Type Culture Collection (ATCC, Rockville, Md., USA). Human ovarian epithelial carcinoma-derived cancer cells A2780 and its cisplatin-resistant clone A2780cis were from Sigma Inc (St. Louis, Mo., USA), and the isogenic cisplatin-resistant 2780CP-16 cells were cultured as previously described (Siddik, Z. H.; Mims, B.; Lozano, G.; Thai, G. Independent pathways of p53 induction by cisplatin and X-rays in a cisplatin-resistant ovarian tumor cell line. Cancer Res. 1998, 58, 698-703, incorporated herein by reference in its entirety). A panel of non-small cell lung cancer (NSCLC) cell lines (H460, A549, H226, H838, H157, H1975, H2122, SKLU1 and H1299) was obtained from Dr. Garth Powis at MD Anderson Cancer Center. Cell lines were further authenticated for their origin by BMR Genomics according to Cell ID System (Promega) protocol and using Genemapper ID Ver 3.2.1 to identify DNA short tandem repeat profiles. The […] cisplatin-resistant subclone (A2780cis) was maintained by weekly treatment with 1 μM cisplatin (Casagrande, N.; Celegato, M.; Borghese, C.; Mongiat, M.; Colombatti, A.; Aldinucci, D. Preclinical activity of the liposomal cisplatin Lipoplatin in ovarian cancer. Clin. Cancer Res. 2014, 20(21), 5496-5506, incorporated herein by reference in its entirety).
Cells were cultured in 5% CO2 in RPMI (for L-540, A2780, A2780cis, 2780CP-16, PC3 and the panel of lung cancer cells) or DMEM (for MCF-7 cells) media supplemented with 10% heat-inactivated fetal calf serum (FCS; Sigma-Aldrich-Italy), 0.2 mg/ml penicillin/streptomycin and 0.1% (w/v) L-gluamine (Biocrom) at 37° C. in a 5% CO2 fully humidified atmosphere.
(§3) Gold(III) compounds were dissolved in DMSO (final concentration of the gold(III) complexes was 10 mM) and stored at −80° C. in volumes of 500 μL or aliquoted into volumes of 10 μL and stored at −20° C. (used once without refreezing). They were then diluted in RPMI medium immediately before use. The culture medium with the same amount of drug-free DMSO was used as negative control.
as §2

The subject of another assay is MCF-7 cells. As to the kind of experiment: Cell proliferation assay (MTT/MTS), MCF-7. Conditions: 72-120 h, MTT or MTS, mean±SEM.
Source text: as §1, §2

A further assay deals with PC3 cells. As to the kind of experiment: Cell proliferation assay (MTT/MTS), PC3. As to conditions: 72-120 h, MTT or MTS, mean±SEM.
Source text: as §1, §2

Another assay concerns L-540 cells. Nature of the assay: Cell proliferation assay (MTS), L-540. Conditions: mean±SEM.
Source text: as §1, §2

In assay [2] the test system is cisplatin-resistant 2780CP cells. As to the kind of experiment: Cell proliferation assay, 2780CP-16. Conditions: 2780CP versus A2780. From the text: Hodgkin's lymphoma cell line (L-540) and human androgen-resistant prostate cancer cell line (PC3) were obtained from the German Collection of Microorganisms and Cell Cultures (Braunschweig, Germany). Human breast adenocarcinoma cell line MCF-7 cell line (HTB-22™) was obtained from the American Type Culture Collection (ATCC, Rockville, Md., USA). […]
(§4) PC3 and MCF-7 cells (2.5×10^3), A2780, A2780cis (4.0×10^3), A2780CP-16 and lung cancer cells (H460, A549, H226, H838, H157, H1975, H2122, SKLU1 and H1299) were seeded in 96-well flat-bottomed microplates (100 μL) and incubated for 24 h (to allow cell adhesion) before drug testing. […] After treatment, cell proliferation was evaluated by the MTS assay (Promega). […] The dependency of the anticancer activity of the gold(III) compounds on the type of p53 or the absence of p53 was assessed in A2780 cells following p53 knockdown by CRISPR (Cong, L.; Ran, F. A.; Cox, D.; Lin, S.; Barretto, R.; Habib, N.; Hsu, P. D.; Wu, X.; Jiang, W.; Marraffini, L. A.; Zhang, F. Multiplex genome engineering using CRISPR/Cas systems Science. 2013, 15; 339 (6121), 819-23, incorporate herein by reference in its entirety). […]

For assay [3], the system named is NSCLC cell lines (H460, A549, H226, H838, H157, H1975, H2122, SKLU1 and H1299). As to the kind of experiment: Cell proliferation assay, NSCLC panel grouped by p53 status. As to conditions: range over the NSCLC panel (WT-, Mut- and Null-p53).
Source text: as §1, §2

A further assay deals with A549 cells. As to the kind of experiment: Dose-response curves in A549 cells. Conditions: 5 days after contacting. As for the experimental part: as §3
as §4, with “testing. The medium was then removed and replaced with fresh medium which separately contained cisplatin and the gold(III) compounds 1 to 9 at increasing concentrations (from 0.01 to 100 μM) at 37° C. for 72-120 h.” for “testing.”

For assay [4], the system named is WT-p53 A2780 ovarian cancer cells (CRISPR Control). As to the kind of experiment: MTT assay, A2780 transfected with CRISPR control plasmid. As to conditions: A2780 clone with control plasmid. As to the method: as §4, with “testing. The medium was then removed and replaced with fresh medium which separately contained cisplatin and the gold(III) compounds 1 to 9 at increasing concentrations (from 0.01 to 100 μM) at 37° C. for 72-120 h. Each treatment was performed in triplicate. Cell proliferation was assayed using the MTT assay or the MTS assay.” for “testing.”
A general note: Formazan colour is commonly taken as a measure of viable cells.

The subject of assay [5] is A2780 ovarian cancer cells (CRISPR p53 KO). Nature of the assay: MTT assay, A2780 with p53 knocked out by CRISPR/Cas9. Conditions: A2780 clone with p53 knocked out. As to the method: as §4, with “testing. The medium was then removed and replaced with fresh medium which separately contained cisplatin and the gold(III) compounds 1 to 9 at increasing concentrations (from 0.01 to 100 μM) at 37° C. for 72-120 h. Each treatment was performed in triplicate. Cell proliferation was assayed using the MTT assay or the MTS assay.” for “testing.”

Assay [6] deals with L-540, PC3, MCF-7, A2780 and A2780cis cell lines. As to the kind of experiment: In vitro cytotoxicity across the cell line panel, compared with cisplatin. Conditions: all cell lines tested. As to the method:
as §4, with “testing. The medium was then removed and replaced with fresh medium which separately contained cisplatin and the gold(III) compounds 1 to 9 at increasing concentrations (from 0.01 to 100 μM) at 37° C. for 72-120 h. Each treatment was performed in triplicate. Cell proliferation was assayed using the MTT assay or the MTS assay.” for “testing.”

As a reminder, the IC50 is the concentration that inhibits the measured activity by half. Low readings indicate greater potency, high ones weaker potency.

Turning to “cis-[Pt(NH3)2Cl2] [Cisplatin, reference compound]”, the concentration for half-maximal inhibition (IC50) was 1.5 ± 0.1 µM in the assay with A2780 cells; 10.4 ± 0.9 µM in assay [1]; 22.2 ± 0.2 µM in the assay with MCF-7 cells; 3.3 ± 0.3 µM with PC3 cells; 2.5 ± 0.1 µM in the assay with L-540 cells. In addition, in [1] (A2780cis versus A2780), the “fold higher IC50 in A2780cis than in A2780” value is “about 7 fold”. For the same molecule, the “Fold resistance A2780cis/A2780 ratio” value in [1] (ratio of IC50 in A2780cis to IC50 in A2780) came out at 6.93. Besides, the “fold cisplatin resistance of 2780CP cells” value in [2] was 20 fold.
`CN(C)C(=S)[S][Au+2].Cc1ccc(-c2ccc(C)cn2)nc1.[Cl-].[Cl-]` [Compound 4]: the IC50 in the assay on A2780 cells was 0.28 ± 0.03 µM; in assay [1], 0.17 ± 0.01 µM; with MCF-7 cells, 0.28 ± 0.02 µM; in the assay on PC3 cells, 0.59 ± 0.05 µM; with L-540 cells, 2.7 ± 0.22 µM; in assay [3], 0.12 to 0.31 µM. The results for the IC50 in assay [4] and in assay [5] were 0.087 ± 0.003 µM and 0.083 ± 0.003 µM, respectively. Moreover, the “potency from dose-response curves in A549 cells” value in the assay on A549 cells is “greater potencies than compounds 3, 6, and 9”. The “activity compared with cisplatin” value in [6] was “generally more effective than cisplatin”.
